The target in assay [1] is T1, human B1R receptor (Homo sapiens, UniProt P46663).
T1 construct: host or cells: CHO K1 cells (Chinese hamster ovary), stably transfected
T1 sequence (P46663 1-353): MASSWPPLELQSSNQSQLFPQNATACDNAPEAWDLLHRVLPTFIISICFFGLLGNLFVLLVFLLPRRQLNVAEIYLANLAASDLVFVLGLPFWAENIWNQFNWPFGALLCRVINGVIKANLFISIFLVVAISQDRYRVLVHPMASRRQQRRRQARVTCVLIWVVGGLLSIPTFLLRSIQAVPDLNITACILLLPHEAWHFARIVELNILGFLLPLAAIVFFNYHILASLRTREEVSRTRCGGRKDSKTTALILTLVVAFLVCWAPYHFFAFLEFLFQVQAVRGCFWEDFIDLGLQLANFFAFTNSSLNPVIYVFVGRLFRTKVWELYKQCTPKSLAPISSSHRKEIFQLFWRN
In words: Functional study on the bradykinin receptor 1 (B1R), FLIPR Ca2+ assay, hB1R cells. The following applies: agonist Lys-Des-Arg9-bradykinin 0.5 nM, % inhibition compared with the maximum achievable inhibition; for inhibition at 10 µM: CHO-K1, test substance 10 μM, read-out: B1R Antagonism, human [10 μM] % Inhibition; for B1R Antagonism, human [10 μM] % Inhibition: test substance 10 μM, hB1R CHO K1 cells. It is filed as cell-based. In a few lines: (§1)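 FLIPR Ca2+ assay in recombinant CHO K1 cells (human or rat B1R), Fluo-4 dye; 10 μM compound, 10 min, then EC-level agonist per species (0.5 nM Lys-Des-Arg9-BK human / 100 nM Des-Arg9-BK rat). Output: % inhibition vs maximum.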

Assay [2] has as its target T2, B1R receptor of the rat (Rattus norvegicus, UniProt P97583).
T2 construct: host or cells: CHO K1 cells (Chinese hamster ovary), stably transfected
T2 sequence (P97583 1-337): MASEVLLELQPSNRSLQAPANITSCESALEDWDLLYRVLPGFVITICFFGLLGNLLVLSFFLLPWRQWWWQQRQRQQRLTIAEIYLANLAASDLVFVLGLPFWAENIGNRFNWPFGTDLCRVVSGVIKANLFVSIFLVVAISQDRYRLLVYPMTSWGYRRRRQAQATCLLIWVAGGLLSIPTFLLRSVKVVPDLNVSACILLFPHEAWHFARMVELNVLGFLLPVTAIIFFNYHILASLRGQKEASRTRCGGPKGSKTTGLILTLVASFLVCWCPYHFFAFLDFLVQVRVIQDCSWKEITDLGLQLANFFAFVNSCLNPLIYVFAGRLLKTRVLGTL
The assay can be described thus: Functional study on the bradykinin receptor 1 (B1R), FLIPR Ca2+ assay, rB1R cells. The following applies: agonist Des-Arg9-bradykinin 100 nM, % inhibition compared with the maximum achievable inhibition; for inhibition at 10 µM: CHO-K1, test substance 10 μM, read-out: B1R Antagonism, rat [10 μM] % Inhibition; for B1R Antagonism, rat [10 μM] % Inhibition: test substance 10 μM, rB1R CHO K1 cells. Format: cell-based. In a few lines: as §1

Molecules are shown by their SMILES.

A word on the inhibition: it is the change of the read-out against control, counted positive when it falls.

Turning to `COc1cc(C)c(S(=O)(=O)N2CCCCC2COCC(=O)N2CCN(Cc3nc(-c4ccccc4)[nH]c3Cl)CC2)c(C)c1` (stereo not shown) [Example 197, 1-(4-((5-chloro-2-phenyl-1H-imidazol-4-yl)methyl)piperazin-1-yl)-2-((1-(4-methoxy-2,6-dimethylphenylsulfonyl)piperidin-2-yl)methoxy)ethanone], the inhibition at 10 µM amounted to 104% in assay [1] and 100% in assay [2].

For `COc1cc(C)c(S(=O)(=O)N2CCCCC2COCC(=O)N2CCN(Cc3cnn(C)c3C)CC2)c(C)c1` (stereo not shown) [Example 198, 1-(4-((1,5-dimethyl-1H-pyrazol-4-yl)methyl)piperazin-1-yl)-2-((1-(4-methoxy-2,6-dimethylphenylsulfonyl)piperidin-2-yl)methoxy)ethanone], the inhibition at 10 µM in assay [1] was 105%; in assay [2], 99.8%.

As to `COc1cc(C)c(S(=O)(=O)N2CCCCC2COCC(=O)N2CCN(Cc3cnc(N(C)C)nc3)CC2)c(C)c1` (stereo not shown) [Example 199, 1-(4-((2-(dimethylamino)pyrimidin-5-yl)methyl)piperazin-1-yl)-2-((1-(4-methoxy-2,6-dimethylphenylsulfonyl)piperidin-2-yl)methoxy)ethanone], the inhibition at 10 µM stood at 104% in assay [1] and 101% in assay [2].

Take `COc1cc(C)c(S(=O)(=O)N2CCCCC2COCC(=O)N2CCC(N3CCc4cc(F)ccc4C3)CC2)c(C)c1` (stereo not shown) [Example 200, 1-(4-(6-fluoro-3,4-dihydroisoquinolin-2(1H)-yl)piperidin-1-yl)-2-((1-(4-methoxy-2,6-dimethylphenylsulfonyl)piperidin-2-yl)methoxy)ethanone]: the figures for the inhibition at 10 µM in assay [1] and in assay [2] were 102% and 98.7%, respectively.

As to `COc1cc(C)c(S(=O)(=O)N2CCCCC2COCC(=O)N2CCC(c3ccncc3)CC2)c(C)c1` (stereo not shown) [Example 201, 2-((1-(4-methoxy-2,6-dimethylphenylsulfonyl)piperidin-2-yl)methoxy)-1-(4-(pyridin-4-yl)piperidin-1-yl)ethanone], the inhibition at 10 µM is 103% in assay [1] and 98.2% in assay [2].

For the compound `COc1cc(C)c(S(=O)(=O)N2c3ccccc3CCC2COCC(=O)N2CCN(C3CCN(C)CC3)CC2)c(C)c1` (stereo not shown) [Example 202, 2-((1-(4-methoxy-2,6-dimethylphenylsulfonyl)-1,2,3,4-tetrahydroquinolin-2-yl)methoxy)-1-(4-(1-methylpiperidin-4-yl)piperazin-1-yl)ethanone], the figures for the inhibition at 10 µM in assay [1] and in assay [2] were 104% and 99.8%, respectively.

With `CN1CCC(N2CCN(C(=O)COCC3CCc4ccccc4N3S(=O)(=O)c3ccc4ccccc4c3)CC2)CC1` (stereo not shown) [Example 203, 1-(4-(1-methylpiperidin-4-yl)piperazin-1-yl)-2-((1-(naphthalen-2-ylsulfonyl)-1,2,3,4-tetrahydroquinolin-2-yl)methoxy)ethanone], the inhibition at 10 µM turned out to be 103% in assay [1] and 98.8% in assay [2].

For `COc1ccc(S(=O)(=O)N2c3ccccc3CCC2COCC(=O)N2CCN(C3CCN(C)CC3)CC2)cc1` (stereo not shown) [Example 204, 2-((1-(4-methoxyphenylsulfonyl)-1,2,3,4-tetrahydroquinolin-2-yl)methoxy)-1-(4-(1-methylpiperidin-4-yl)piperazin-1-yl)ethanone], the inhibition at 10 µM came out at 105% in assay [1] and 99% in assay [2].

Turning to `COc1cc(C)c(S(=O)(=O)N2CCCCC2COCC(=O)NCc2ccccc2Oc2cnccn2)c(C)c1` (stereo not shown) [Example 205, 2-((1-(4-methoxy-2,6-dimethylphenylsulfonyl)piperidin-2-yl)methoxy)-N-(2-(pyrazin-2-yloxy)benzyl)acetamide], the inhibition at 10 µM in assay [1] was 50%; in assay [2], 99.7%.

On to `COc1cc(C)c(S(=O)(=O)N2CCCCC2COCC(=O)N2Cc3ccncc3C2)c(C)c1` (stereo not shown) [Example 206, 2-((1-(4-methoxy-2,6-dimethylphenylsulfonyl)piperidin-2-yl)methoxy)-1-(1H-pyrrol[3,4-c]pyridin-2(3H)-yl)ethanone], for which the “B1R Antagonism, human [10 μM] % Inhibition” value in assay [1] is 53.94%. Moreover, in assay [2], the “B1R Antagonism, rat [10 μM] % Inhibition” value was 99.49%.

As to `COc1cc(C)c(S(=O)(=O)N2CCCCC2COCC(=O)N2CCOC(c3cccnc3)C2)c(C)c1` (stereo not shown) [Example 207, 2-((1-(4-methoxy-2,6-dimethylphenylsulfonyl)piperidin-2-yl)methoxy)-1-(2-(pyridin-3-yl)morpholin)ethanone], the “B1R Antagonism, human [10 μM] % Inhibition” value in assay [1] was found to be 101.93%. The “B1R Antagonism, rat [10 μM] % Inhibition” value in assay [2] worked out at 100.16%.

For the compound `COc1cc(C)c(S(=O)(=O)N2CCCCC2COCC(=O)N2CCC(Cc3cccnc3)C2)c(C)c1` (stereo not shown) [Example 208, 2-((1-(4-methoxy-2,6-dimethylphenylsulfonyl)piperidin-2-yl)methoxy)-1-(3-(pyridin-3-ylmethyl)pyrrolidin-1-yl)ethanone], the inhibition at 10 µM in assay [1] was 105%; in assay [2], 101%.

As for `COc1cc(C)c(S(=O)(=O)N2CCCCC2COCC(=O)N(C)CCC2CCC(N(C)C)CC2)c(C)c1` (stereo not shown) [Example 209, N-(2-(4-(dimethylamino)cyclohexyl)ethyl)-2-((1-(4-methoxy-2,6-dimethylphenylsulfonyl)piperidin-2-yl)methoxy)-N-methylacetamide], the inhibition at 10 µM in assay [1] amounted to 104%; in assay [2] it was 99.9%.

Turning to `COc1ccc2cc(S(=O)(=O)N3CCCCC3COCC(=O)N3CCN(C4CCN(C)CC4)CC3)ccc2c1` (stereo not shown) [Example 210, 2-((1-(6-methoxynaphthalen-2-ylsulfonyl)piperidin-2-yl)methoxy)-1-(4-(1-methylpiperidin-4-yl)piperazin-1-yl)ethanone], the inhibition at 10 µM in assay [1] stood at 106%; in assay [2], 96%.

Regarding `COc1cc(C)c(S(=O)(=O)N2CCCCC2COCC(=O)N2CCC(N3CCn4cccc4C3)CC2)c(C)c1` (stereo not shown) [Example 211, 1-(4-(3,4-dihydropyrrolo[1,2-a]pyrazin-2(1H)-yl)piperidin-1-yl)-2-((1-(4-methoxy-2,6-dimethylphenylsulfonyl)piperidin-2-yl)methoxy)ethanone], the inhibition at 10 µM was found to be 106% in assay [1] and 100% in assay [2].

With `COc1cc(C)c(S(=O)(=O)N2CCCCC2COCC(=O)N2CCN(CCC3CCN(C)CC3)CC2)c(C)c1` (stereo not shown) [Example 212, 2-((1-(4-methoxy-2,6-dimethylphenylsulfonyl)piperidin-2-yl)methoxy)-1-(4-(2-(1-methylpiperidin-4-yl)ethyl)piperazin-1-yl)ethanone], the values for the inhibition at 10 µM in assay [1] and in assay [2] were 107% and 100%, respectively.

As for `CN(CCC1CCC(N(C)C)CC1)C(=O)COCC1CCc2ccccc2N1S(=O)(=O)c1ccc(Cl)c(Cl)c1` (stereo not shown) [Example 213, 2-((1-(3,4-dichlorophenylsulfonyl)-1,2,3,4-tetrahydroquinolin-2-yl)methoxy)-N-(2-(4-(dimethylamino)cyclohexyl)ethyl)-N-methylacetamide], the inhibition at 10 µM is 59.7% in assay [1] and 94.5% in assay [2].

Turning to `COc1cc(C)c(S(=O)(=O)N2CCCCC2COCC(=O)N2CCN(Cc3cnc(N(C)c4ccc(F)cc4)nc3)CC2)c(C)c1` (stereo not shown) [Example 214, 1-(4-((2-((4-fluorophenyl)(methyl)amino)pyrimidin-5-yl)methyl)piperazin-1-yl)-2-((1-(4-methoxy-2,6-dimethylphenylsulfonyl)piperidin-2-yl)methoxy)ethanone], the inhibition at 10 µM stood at 101% in assay [1] and 102% in assay [2].

`COc1cc(C)c(S(=O)(=O)N2CCCCC2COCC(=O)N2CCc3cc(N4CCN(C)CC4)ccc3C2)c(C)c1` (stereo not shown) [Example 215, 2-((1-(4-methoxy-2,6-dimethylphenylsulfonyl)piperidin-2-yl)methoxy)-1-(6-(4-methylpiperazin-1-yl)-3,4-dihydroisoquinolin-2(1H)-yl)ethanone]: the values for the inhibition at 10 µM in assay [1] and in assay [2] were 99.9% and 101%, respectively.

With `CN(CCC1CCC(N2CCCC2)CC1)C(=O)COCC1CCc2ccccc2N1S(=O)(=O)c1ccc(Cl)c(Cl)c1` (stereo not shown) [Example 216, 2-((1-(3,4-dichlorophenylsulfonyl)-1,2,3,4-tetrahydroquinolin-2-yl)methoxy)-N-methyl-N-(2-(4-(pyrrolidin-1-yl)cyclohexyl)ethyl)acetamide], the figures for the inhibition at 10 µM in assay [1] and in assay [2] were -10.1% and 4.48%, respectively.

For the origin of these results see patent US8435978B2, “Substituted sulfonamide compounds” (Gruenenthal GmbH, priority 2006, dated 2013).
